The numbers were not newly measured in US20130052262A1, “DABIGATRAN ETEXILATE-CONTAINING ORAL PHARMACEUTICAL COMPOSITION” (priority 2010, published 2013), which cites them from elsewhere.

The conditions of this data set: in the acidic environment.

Each structure is given as a SMILES string.

For the molecule `CCCCCCOC(=O)NC(=N)c1ccc(NCc2nc3cc(C(=O)N(CCC(=O)OCC)c4ccccn4)ccc3n2C)cc1` [dabigatran etexilate, 3-[(2-{[4-(hexyloxycarbonylamino-imino-methyl)-phenylamino]-methyl}-1-methyl-1H-benzimidazole-5-carbonyl)-pyridine-2-yl-amino]-propionic acid ethyl ester], the pH-dependent solubility result is recorded as “greatly increased”.
